{"source": "patent US12398139B2", "about": "“Modulators of AMPA receptor signaling” (Centre for Addiction and Mental Health, priority 2019, dated 2025)", "key": {"[1]": {"tested_on": "HEK-293 cells expressing GAPDH and GluR2", "assay": "AMPA mediated cell-death assay (CellTox Green Cytotoxicity Assay)", "assay_type": "cell-based", "settings": "Homo sapiens, HEK293, AMPA 500 μM, CTZ 100 μM, CellTox Green fluorescence, read-out: Potency, inhibition of AMPA-mediated neurotoxicity (IC50, concentration at which 50% of cell death was prevented)", "protocol": "The ability of compounds to inhibit AMPA-mediated neurotoxicity was determined using the CellTox™ Green Cytotoxicity Assay (G8743) kit from Promega. In this assay, GAPDH and GluR2 are expressed in HEK-293 cells. AMPA (500 μM) was added to induce an AMPAR-mediated cell death signalling cascade. This is initiated by the GAPDH-GluR2 complex formation followed by the nuclear translocation of the complex, where it activates the p53-mediated cell death pathway. The presence of a compound which can block dimerization of GAPDH and GluR2 will prevent the nuclear translocation and the cell death and, thus this assay is an effective measure of the ability of a compound to prevent AMPA-mediated neurotoxicity and thus show therapeutic benefit in the treatment of MS.\nThe assay was performed as per the manufacture's instruction. Briefly, 293 cells stably expressing GluR1 and GluR2VENUS were transfected with pcDNA-RluC-GAPDH. AMPA (500 μM) were added to induce the cell death. CTZ (100 μM) was added to prevent AMPAR desensitization. Candidate molecules were added before the AMPA treatment to test its protective effect. Untreated cells and AMPA treated group were used as negative and positive control respectively. CellTox™ Green Reagent (˜5×) was then added to achieve a final concentration of 1× and cells were incubated at room temperature for 15 minutes (shielded from ambient light). The fluorescence intensity at 485-500 nmEx/520-530 nmEm was then measured and calculated as the percentage value of the positive control. The concentration at which 50% of cell death was prevented (IC50) was determined for each compound.\nThe potency was measured using the cell death assay described above."}, "[2]": {"assay": "Human liver microsomal stability assay", "assay_type": "in vitro ADME", "settings": "both sexes, pooled human liver microsomes, pH 7.4; human liver microsomes 0.5 mg/mL, 3 μM compound, NADPH, 37° C., 45 min; read-out: T1/2, human liver microsomal stability", "protocol": "(§1) Metabolic stability of 2-pyrrolopyrazoles derivatives was measured by determination of the rate of compound disappearance when incubated in the presence of human or rat liver microsomes. Liver microsomes are prepared from the endoplasmic reticulum of hepatocytes and are the primary source of the most important enzymes (cytochrome P450) involved in drug metabolism. Study of drug stability in the presence of liver microsomes is accepted as a valuable model permitting rapid prediction of in vivo drug stability.\n(§2) Human or rat liver microsomes were obtained from a commercial source. Test compounds (3 μM) were incubated with pooled liver microsomes (male and female). Samples were incubated for a 45 minute period and removed at 5 time points and test compounds were analyzed by LC-MS/MS\n(§3) Microsomes (final protein concentration 0.5 mg/mL), 0.1 M phosphate buffer pH 7.4, and test compound (final concentration 3 μM; diluted from 10 mM stock solution to give a final DMSO concentration of 0.25%) were incubated at 37° C. prior to the addition of NADPH (final concentration 1 mM) to initiate the reaction. The final incubation volume was 25 μL. A control incubation was included for each compound tested, where 0.1 M phosphate buffer pH 7.4 was added instead of NADPH. The control compounds testosterone and 7-hydroxycoumarin were included in each experiment and all incubations were performed singularly for each compound.\n(§4) Each compound was incubated for 0, 5, 15, 30, and 45 minutes. The control (minus NADPH) was incubated for 45 minutes only. The reactions were stopped by the addition of 50 μL methanol containing internal standard at the appropriate time points. The incubation plates were centrifuged at 2500 rpm for 20 minutes at 4° C. to precipitate the protein.\n(§5) Following protein precipitation, the sample supernatants were combined in cassettes of up to 4 compounds and analysed using standard LC-MS/MS conditions.\n(§6) From a plot of the natural logarithm of the peak area ratio (i.e., the ratio of compound peak area: internal standard peak area) against time, the gradient of the line was determined. Subsequently, half-life and intrinsic clearance were calculated using the equations below: Eliminated rate constant (k)=(−gradient). Half-life (t1/2) (min)=[…]. Intrinsic Clearance (CLint) (μL/min/[…])=(V×0.693)/t1/2. wherein V=Incubation volume (μL/mg microsomal protein).\n(§7) Biological half-life values (t1/2) were determined for several 2-pyrrolopyrazoles, as well as the closely-related reference 1-pyrrolopyrazole, using the human liver microsomal stability assay described above."}, "[3]": {"assay": "Rat liver microsomal stability assay", "assay_type": "in vitro ADME", "settings": "both sexes, pooled rat liver microsomes, pH 7.4; rat liver microsomes 0.5 mg/mL, 3 μM compound, NADPH, 37° C., 45 min; read-out: T1/2, rat liver microsomal stability", "protocol": "as §1, §2, §3, §4, §5, §6, §7"}, "GluR2/GAPDH complex": {"target": "T1, GluR2/GAPDH complex (Homo sapiens, UniProt P42262)", "T1 construct": "host or cells: HEK293 cells stably transfected with GluR2-VENUS (lysate)", "T1 sequence (P42262 25-883, species assumed, one chain of several)": "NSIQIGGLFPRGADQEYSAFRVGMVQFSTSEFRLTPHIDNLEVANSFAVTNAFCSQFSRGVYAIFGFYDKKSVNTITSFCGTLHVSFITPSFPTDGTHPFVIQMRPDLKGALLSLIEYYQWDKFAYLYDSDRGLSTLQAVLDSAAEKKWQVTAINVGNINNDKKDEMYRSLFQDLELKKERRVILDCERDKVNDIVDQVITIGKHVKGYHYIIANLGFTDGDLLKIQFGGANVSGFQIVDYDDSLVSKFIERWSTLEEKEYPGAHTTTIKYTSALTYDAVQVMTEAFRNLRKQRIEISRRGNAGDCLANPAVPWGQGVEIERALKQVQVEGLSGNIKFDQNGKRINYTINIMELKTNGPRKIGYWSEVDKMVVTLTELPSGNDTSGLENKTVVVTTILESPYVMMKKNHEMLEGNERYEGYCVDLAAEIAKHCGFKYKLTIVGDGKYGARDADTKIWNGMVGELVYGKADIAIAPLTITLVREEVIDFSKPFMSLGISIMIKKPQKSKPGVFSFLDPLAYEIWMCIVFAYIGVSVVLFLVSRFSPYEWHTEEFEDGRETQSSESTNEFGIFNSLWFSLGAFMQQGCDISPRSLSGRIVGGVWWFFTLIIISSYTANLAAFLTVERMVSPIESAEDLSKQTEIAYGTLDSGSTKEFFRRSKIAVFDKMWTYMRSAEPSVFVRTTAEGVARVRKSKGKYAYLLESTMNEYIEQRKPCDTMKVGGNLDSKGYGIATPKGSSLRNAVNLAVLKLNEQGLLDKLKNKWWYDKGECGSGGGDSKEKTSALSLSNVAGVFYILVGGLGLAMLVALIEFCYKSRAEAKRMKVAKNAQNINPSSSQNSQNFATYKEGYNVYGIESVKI", "assay": "Surface plasmon resonance target engagement assay (competitive GluR2-Venus affinity with GAPDH)", "settings": "SPR, captured GluR2-VENUS, 100 nM GAPDH peptide, compound top concentration 10 μM; read-out: Potency, GluR2 Binding Affinity (competitive inhibition of GluR2-GAPDH interaction)", "protocol": "This is one of the most commonly used techniques to study modulation of protein-protein interactions by small molecule ligands, providing real-time measurement of binding affinities and association/dissociation kinetics of complexes (compound/protein) in a label-free environment. The ability of our lead compound to disrupt the interaction of GluR2/GAPDH complex was measured by the binding affinity. Compounds were analyzed for competitive GluR2-Venus protein affinity (with GAPDH recombinant protein) using a Reichert 2SPR system. The surface was first charged with nickel (500 μM NiCl2 in HBS-P buffer for 300 s at a flow rate of 5 μL/min). The dextran surface was then activated with a 1:1 mixture of N-ethyl-N-dimethylaminopropylcarbodiimide (EDC) and N-hydroxysuccinimide (NHS) on line for final concentrations of EDC and NHS of 37.5 mg/mL and 5.8 mg/mL, respectively, for 420 s at a flow rate of 25 μL/min. Anti-VENUS antibody was first immobilized by capture onto a 500 KDa CM Dextran sensor chip (Reichert), proceeded by activation of the carboxymethylated dextran surface for mild amine coupling, followed by a final blocking injection of 1 M ethanolamine, pH 8.5. GluR2-VENUS (lysate of HEK293 cells stably transfected with GluR2-VENUS) was then captured for 900 s at a flow rate of 25 μL/min followed by a final blocking injection of 2% BSA, for 300 s at a flow rate of 5 μL/min.\nThe surface plasmon resonance affinity assay was carried out in a PBS buffer consisting of 0.05% Tween 20. For affinity measurements, compound solutions were prepared using ten three-fold serial dilutions in running buffer from a 10 μM top concentration (prepared from DMSO stocks) along with a zero (running buffer) control, mixed with 100 nM GAPDH peptide (Sigma Aldrich). A flow rate of 30 μl/min was used with a 420 s contact time (using high performance injection parameters) followed by a 120 s dissociation phase. Results were analyzed by subtracting the signals of the reference surface from the signals for the protein-bound surfaces and performing a solvent correction. Competitive binding responses were normalized throughout the screen to the percentage of inhibition of the respective small molecule compound. Three independent experiments were performed.\nThe binding affinity was measured using the surface plasmon resonance assay described above."}, "EAE mice": {"tested_on": "EAE mice", "assay": "Experimental autoimmune encephalomyelitis (EAE) model for multiple sclerosis", "assay_type": "in vivo, mice (C57BL/6)"}}, "note": "pIC50: −log10 of the molar value."}
{"smiles": "CN(C(=O)c1ccnc(N2Cc3cn(Cc4ccc(F)cc4)nc3C2)n1)C1CCCC1", "note": "[Compound 226, N-Cyclopentyl-2-(2-(4-fluorobenzyl)-2,6-dihydropyrrolo[3,4-c]pyrazol-5(4H)-yl)-N-methylpyrimidine-4-carboxamide]", "values": [{"measurement": "pIC50", "setting": "[1]", "result": 7.38}, {"measurement": "half-life at 3 μM", "setting": "[2]", "result": 7, "unit": "min"}, {"measurement": "half-life at 3 μM", "setting": "[3]", "result": "< 1", "unit": "min"}]}
{"smiles": "CN(C(=O)c1cncc(N2Cc3cn(Cc4ccc(F)cc4)nc3C2)n1)C1CCCC1", "note": "[Compound 228, N-Cyclopentyl-6-(2-(4-fluorobenzyl)-2,6-dihydropyrrolo[3,4-c]pyrazol-5(4H)-yl)-N-methylpyrazine-2-carboxamide]", "values": [{"measurement": "pIC50", "setting": "[1]", "result": 7.38}, {"measurement": "half-life at 3 μM", "setting": "[2]", "result": 8, "unit": "min"}, {"measurement": "half-life at 3 μM", "setting": "[3]", "result": "< 1", "unit": "min"}]}
{"smiles": "O=C(NC1CCCCC1)c1cccc(N2Cc3cn(Cc4ccc(F)cc4)nc3C2)c1", "note": "[Compound 216, N-Cyclohexyl-3-(2-(4-fluorobenzyl)-2,6-dihydropyrrolo[3,4-c]pyrazol-5(4H)-yl)benzamide]", "values": [{"measurement": "pIC50", "setting": "[1]", "result": 7.24}, {"measurement": "pIC50", "setting": "GluR2/GAPDH complex", "result": 7.04}, {"measurement": "half-life at 3 μM", "setting": "[2]", "result": "> 1000", "unit": "min"}]}
{"smiles": "CN(C(=O)c1ccnc(N2Cc3cn(Cc4ccc(F)cc4)nc3C2)n1)C1CCCCC1", "note": "[Compound 230, N-Cyclohexyl-2-(2-(4-fluorobenzyl)-2,6-dihydropyrrolo[3,4-c]pyrazol-5(4H)-yl)-N-methylpyrimidine-4-carboxamide]", "values": [{"measurement": "pIC50", "setting": "[1]", "result": 7.06}, {"measurement": "half-life at 3 μM", "setting": "[3]", "result": "< 1", "unit": "min"}]}
{"smiles": "O=C(c1cccc(N2Cc3cn(Cc4ccc(F)cc4)nc3C2)c1)N1CCCCC1", "note": "[Compound 242, (3-(2-(4-Fluorobenzyl)-2,6-dihydropyrrolo[3,4-c]pyrazol-5(4H)-yl)phenyl)(piperidin-1-yl)methanone]", "values": [{"measurement": "pIC50", "setting": "[1]", "result": 7.10}, {"measurement": "pIC50", "setting": "GluR2/GAPDH complex", "result": 8.10}, {"measurement": "half-life at 3 μM", "setting": "[3]", "result": 14, "unit": "min"}]}
{"smiles": "CN(C)C(=O)c1ccnc(N2Cc3cn(Cc4ccc(F)cc4)nc3C2)n1", "note": "[Compound 210, 2-(2-(4-Fluorobenzyl)-2,6-dihydropyrrolo[3,4-c]pyrazol-5(4H)-yl)-N,N-dimethylpyrimidine-4-carboxamide]", "values": [{"measurement": "pIC50", "setting": "[1]", "result": 7.09}, {"measurement": "pIC50", "setting": "GluR2/GAPDH complex", "result": 7.48}, {"measurement": "half-life at 3 μM", "setting": "[2]", "result": 749, "unit": "min"}]}
{"smiles": "CN(C)C(=O)c1cncc(N2Cc3cn(Cc4ccc(F)cc4)nc3C2)n1", "note": "[Compound 155, 6-(2-(4-Fluorobenzyl)-2,6-dihydropyrrolo[3,4-c]pyrazol-5(4H)-yl)-N,N-dimethylpyrazine-2-carboxamide]", "values": [{"measurement": "pIC50", "setting": "[1]", "result": 7.46}, {"measurement": "pIC50", "setting": "GluR2/GAPDH complex", "result": 9.40}, {"measurement": "mean clinical score compared with the no treatment group", "setting": "EAE mice; 5 or 10 mg/kg i.p. daily from day 11~12, two-way ANOVA at least P<0.05", "result": "significantly lower"}, {"measurement": "neurological function", "setting": "EAE mice; i.p. administration from day 11~12 after immunization (1~2 days after symptoms)", "result": "greatly improves neurological function"}]}
{"smiles": "CN1CCN(C(=O)c2cccc(N3Cc4cn(Cc5ccc(F)cc5)nc4C3)c2)CC1", "note": "[Compound 218, (3-(2-(4-Fluorobenzyl)-2,6-dihydropyrrolo[3,4-c]pyrazol-5(4H)-yl)phenyl)(4-methylpiperazin-1-yl)methanone]", "values": [{"measurement": "pIC50", "setting": "[1]", "result": 7.48}, {"measurement": "pIC50", "setting": "GluR2/GAPDH complex", "result": 7.00}]}
{"smiles": "CN(C)C(=O)c1cncc(N2Cc3cnn(Cc4ccc(F)cc4)c3C2)n1", "note": "[REF, reference compound]", "values": [{"measurement": "pIC50", "setting": "[1]", "result": 6.70}, {"measurement": "pIC50", "setting": "GluR2/GAPDH complex", "result": "< 6.00"}]}
